Structures can show the parent of a compound that is named as a salt.
Tests used:
[1] = system: collagen production induced by TGF-β (NHDF cells); assay: Inhibitory effect on collagen production induced by TGF-β, [3H] proline uptake (NHDF cells); format: cell-based, human; settings: Homo sapiens, NHDF, TGF-β1 3 ng/ml
Summary of the method: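 NHDF or TIG-3 fibroblasts, serum-starved one day in 0.1% BSA DMEM, received test compound (1, 3, 10 μM), then TGF-β1 (3 ng/ml) plus [3H] proline for one more day. TCA-precipitated protein radioactivity was counted and corrected for XTT cell number. Inhibition is relative to the TGF-β1-induced uptake difference.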

[2] = system: collagen production induced by TGF-β (TIG-3 cells); assay: Inhibitory effect on collagen production induced by TGF-β, [3H] proline uptake (TIG-3 cells); format: cell-based; settings: Homo sapiens, TGF-β1 3 ng/ml
Procedure: As an index of collagen production, the uptake of [^3H] proline was measured.
Using a 96-well microplate, normal human skin derived fibroblast (NHDF, 10^4/well) or human embryonic lung fibroblast (TIG-3, 10^4/well) were cultured in a 10% fetal calf serum (FCS)-containing Dulbecco's modified Eagle medium (DMEM) for one day. After removing the culture supernatant, the cells were washed once with a 0.1% bovine serum albumin (BSA)-containing DMEM medium and then cultured in the 0.1% bovine serum albumin (BSA)-containing DMEM medium for one day. After adding each of the test compounds in each concentration (1, 3, 10 μM), the cells were cultured and, after adding TGF-β1 (3 ng/ml) and [^3H] proline (18.5 kBq/well), the cells were further cultured for additional one day.
After removing the culture supernatant, the cells were washed twice with a phosphate buffer solution (PBS) and dissolved with 0.3M NaOH and 1% sodium dodecylsulfate (SDS), and then each protein fraction was precipitated with trichloroacetic acid (TCA) After the precipitate was filtered through a glass filter (GF/B) and washed, the quantity of [^3H] proline on the glass filter was measured by a liquid scintillation counter. The number of cells was measured by a cell growth measuring kit (XTT, Roche) and the uptake of [^3H] proline was corrected by the number of cells. Inhibitory ratio was calculated as compared with the case where a difference between the uptake of [^3H] proline with or without TGF-β1.

[3] = Measurement of concentration of compound in rat plasma; format: in vivo; settings: oral 10 mg/kg; for concentration at 0.25 h: after 0.25 hours; for concentration at 1 h: after 1 hour; for concentration at 4 h: after 4 hours
Procedure: Each of the test compounds was dissolved or suspended in methyl cellulose and the resulting solution or suspension was orally administered to rats at a dosage of 10 mg/kg and blood was collected after 0.25 hours, 1 hour and 4 hours. The concentration in plasma in each of the compounds was measured by HPLC.

[4] = system: mice; assay: Acute toxicity; format: in vivo; settings: oral 1000 mg/kg, observed for a week after administration
Procedure: Each of the compounds in Examples 1, 9, 31, 120, and 121 was administered.

Row | SMILES | inhibition at 1 µM [1] | inhibition at 3 µM [1] | inhibition at 10 µM [1] | inhibition at 3 µM [2] | inhibition at 10 µM [2] | concentration at 0.25 h [3] | concentration at 1 h [3] | concentration at 4 h [3] | Acute toxicity: deaths [4] | melting point
1 | Cc1ccc2c(c1)c(C(=O)N1CCN(c3ccccn3)CC1)c(-c1ccccc1)n2C [Compound A, 1-(1,5-dimethyl-2-phenylindol-3-ylcarbonyl)-4-(2-pyridyl)piperazine hydrochloride, reference compound] | 8% | 9% | 30% | 28% | 63% | 0 to 69 ng/mL | 55 to 120 ng/mL | 5 to 18 ng/mL | – | –
2 | CC(=O)Nc1cnc(N2CCN(C(=O)c3c(-c4ccccc4)n(C)c4ccc(C)cc34)CC2)cn1 [Example 121, N-[5-{4-[(1,5-dimethyl-2-phenyl-1H-indol-3-yl)carbonyl]piperazin-1-yl}pyrazin-2-yl]acetamide] | – | 39% | 54% | – | – | 3900 to 5800 ng/mL | 2100 to 5800 ng/mL | 310 to 580 ng/mL | no deaths were observed | –
3 | Cc1ccc2c(c1)c(C(=O)N1CCN(c3ccc(-c4nnn(CCO)n4)cn3)CC1)c(-c1ccccc1)n2C.Cl [Example 9, 1,5-dimethyl-2-phenyl-3-[(4-{5-[2-(2-hydroxyethyl)-2H-tetrazol-5-yl]pyridin-2-yl}piperazin-1-yl)carbonyl]-1H-indole hydrochloride] | – | – | – | 42% | 71% | 1300 to 3900 ng/mL | 720 to 2200 ng/mL | 350 to 530 ng/mL | no deaths were observed | –
4 | Cc1ncsc1CCNC(=O)c1cnc(N2CCN(C(=O)c3c(-c4ccccc4)n(C)c4cccnc34)CC2)cn1 [Example 7, 5-{4-[(1-methyl-2-phenyl-1H-pyrrolo[3,2-b]pyridin-3-yl)carbonyl]piperazin-1-yl}-N-[2-(4-methyl-1,3-thiazol-5-yl)ethyl]pyrazine-2-carboxamide] | – | – | – | – | – | – | – | – | – | 224.6 °C
5 | COc1ccc(CNC(=O)/C=C/c2c(-c3ccccc3)n(C)c3ccccc23)cc1 [Example 2, (2E)-N-(4-methoxybenzyl)-3-(1-methyl-2-phenyl-1H-indol-3-yl)acrylamide] | 23% | 61% | 79% | 74% | 117% | – | – | – | – | –
6 | Cc1ccc2c(c1)c(C(=O)N1CCN(c3ccc(C(=O)NCCO)cn3)CC1)c(-c1ccccc1)n2C [Example 1, 6-{4-[(1,5-dimethyl-2-phenyl-1H-indol-3-yl)carbonyl]piperazin-1-yl}-N-(2-hydroxyethyl)nicotinamide] | – | – | – | 21% | 56% | 2300 to 29000 ng/mL | 1300 to 7300 ng/mL | 750 to 940 ng/mL | no deaths were observed | –
7 | Cc1ccc2c(c1)c(C(=O)N1CCN(c3cnc(C(=O)NCCc4ccccn4)cn3)CC1)c(-c1ccccc1)n2C [Example 76, 5-{4-[(1,5-dimethyl-2-phenyl-1H-indol-3-yl)carbonyl]piperazin-1-yl}-N-[2-(2-pyridyl)ethyl]pyrazine-2-carboxamide] | – | – | – | 78% | 101% | – | – | – | – | –
8 | Cc1ccc2c(c1)c(C(=O)N1CCN(c3cnc(C(=O)NCc4ccco4)cn3)CC1)c(-c1ccccc1)n2C [Example 15, 5-{4-[(1,5-dimethyl-2-phenyl-1H-indol-3-yl)carbonyl]piperazin-1-yl}-N-(2-furylmethyl)pyrazine-2-carboxamide] | – | – | – | 82% | 140% | – | – | – | – | –
9 | Cc1ccc2c(c1)c(C(=O)N1CCN(c3cnc(C(=O)NCCCn4ccnc4)cn3)CC1)c(-c1ccccc1)n2C [Example 31, 5-{4-[(1,5-dimethyl-2-phenyl-1H-indol-3-yl)carbonyl]piperazin-1-yl}-N-[3-(1H-imidazol-1-yl)propyl]pyrazine-2-carboxamide] | – | – | 74% | 36% | 90% | 320 to 370 ng/mL | 320 to 640 ng/mL | 420 to 650 ng/mL | no deaths were observed | –
10 | Cc1ccc2c(c1)c(C(=O)N1CCN(c3ccc(C(=O)N(C)C)cn3)CC1)c(-c1ccccc1)n2C.Cl [Example 120, 6-{4-[(1,5-dimethyl-2-phenyl-1H-indol-3-yl)carbonyl]piperazin-1-yl}-N,N-dimethylnicotinamide hydrochloride] | – | – | – | – | – | 6400 to 10000 ng/mL | 3200 to 5700 ng/mL | 2500 to 3100 ng/mL | no deaths were observed | –
11 | Cc1ccc2c(c1)c(C(=O)N1CCN(c3ccc(C(=O)N(CCO)Cc4ccccc4)cn3)CC1)c(-c1ccccc1)n2C [Example 60, 6-{4-[(1,5-dimethyl-2-phenyl-1H-indol-3-yl)carbonyl]piperazin-1-yl}-N-(2-hydroxyethyl)-N-benzylnicotinamide hydrochloride] | – | – | – | 70% | 133% | – | – | – | – | –
